Experimental data published in patent US20150148551A1, “GENISTEIN FOR REDUCING LEVELS OF STORAGE COMPOUNDS IN THE TREATMENT AND/OR PREVENTION OF LYSOSOMAL STORAGE DISEASES (LSDS)” (3G THERAPEUTICS, INC., priority 2012, published 2015).

Legend:
GNPTAB = assay: DNA microarray, GNPTAB expression in fibroblasts exposed to genistein; type: cell-based, human; details: for GNPTAB fold change Average: 48 h vs DMSO
Protocol: (§1) The experiments were conducted to characterise the transcriptomic profile of human fibroblast cells exposed to genistein, and in particular to determine the expression of genes encoding lysosomal enzymes involved in metabolism (i.e. synthesis and degradation) of organic substances. The absence or deficiency of these enzymes' activity is responsible for occurrence of various lysosomal storage diseases (LSD) (including MPS). The tested hypothesis assumed that genistein influences the expression of many genes, among which there are genes coding for enzymes required in metabolism of compounds, which are pathologically stored in LSD. The results provide important information regarding genistein action on the molecular level within the range of gene expression modulation by this substance. The experiment was conducted in biological quintuplicates. Human dermal fibroblasts (HDFa) were exposed in vitro for 1, 24 or 48 hours to: 30, 60 or 100 μM of genistein; 0.05% DMSO (K1); or were untreated (control cells) (K2), and total RNA was isolated and analysed.
(§2) Fibroblast cells were grown in Dulbecco (DMEM) medium supplemented with 10% fetal bovine serum (FBS) with the addition of 1% antibiotics and anti-fungal agents at 37° C. in humidified atmosphere of 5% CO2, until the required confluency was obtained.
(§3) To determine the effect of tested compound on the transcriptom of the fibroblast cells, the growth medium was replaced with fresh medium, either non-supplemented (0.05% DMSO), or containing genistein (30, 60 or 100 μM, in 0.05% DMSO). The exposure was done for 1, 24 or 48 hours.
(§4) Total RNA was isolated from fibroblasts using High Pure RNA Isolation Kit according to the protocol and then it was quantitatively evaluated using Quant-It™ RiboGreen® Assay Kit.
(§5) Biotinylated cRNA was prepared using Ambion Total PrepAmp Kit for Illumina arrays.
(§6) Standard hybridization and quantitative image analysis procedures—Illumina hybridization protocol and Illumina scanning protocol, were used.
(§7) Processing of the results was done during data definition, including: background correction (using background subtraction method), normalization (using quantile normalization algorithm with Illumina GenomeStudio software package: gene expression module version 1.9.0) and summarization (using method, which sums the values of signal intensities from a set of probes).

NEU1 = assay: DNA microarray, NEU1 expression in fibroblasts exposed to genistein; type: cell-based, human; details: for NEU1 fold change Average: 48 h vs DMSO
Protocol: as §1, §2, §3, §4, §5, §6, §7

[1] = tested on: fibroblasts from patients with MPS type I, IIIA and IIIB; details: cited from earlier work
LGMN = assay: DNA microarray, LGMN expression in fibroblasts exposed to genistein; type: cell-based, human; details: for LGMN fold change Average: 48 h vs DMSO
Protocol: as §1, §2, §3, §4, §5, §6, §7

HS3ST3A1 = assay: DNA microarray, HS3ST3A1 expression in fibroblasts exposed to genistein; type: cell-based, human
Protocol: as §1, §2, §3, §4, §5, §6, §7

FUCA1 = assay: DNA microarray, FUCA1 expression in fibroblasts exposed to genistein; type: cell-based, human; details: for FUCA1 fold change Average: 48 h vs DMSO
Protocol: as §1, §2, §3, §4, §5, §6, §7

ARSG = assay: DNA microarray, ARSG expression in fibroblasts exposed to genistein; type: cell-based, human; details: for ARSG fold change Average: 48 h vs DMSO
Protocol: as §1, §2, §3, §4, §5, §6, §7

GBA = assay: DNA microarray, GBA expression in fibroblasts exposed to genistein; type: cell-based, human; details: for GBA fold change Average: 48 h vs DMSO
Protocol: as §1, §2, §3, §4, §5, §6, §7

SMILES: O=c1c(-c2ccc(O)cc2)coc2cc(O)cc(O)c12 [genistein, 4′,5,7-trihydroxy-3-phenylchromen-4-one]
- GNPTAB fold change Average 1h30/1hK1 (GNPTAB; 30 μM, 1 h vs 0.05% DMSO): 0.7878 fold change
- GNPTAB fold change Average (GNPTAB; 30 μM): 1.6393 fold change
- GNPTAB fold change Average 1h60/1hK1 (GNPTAB; 60 μM, 1 h vs 0.05% DMSO): 1.235 fold change
- GNPTAB fold change Average 1h100/1hK1 (GNPTAB; 100 μM, 1 h vs 0.05% DMSO): 0.8628 fold change
- GNPTAB fold change Average (GNPTAB; 100 μM): 1.872 fold change
- NEU1 fold change Average 1h30/1hK1 (NEU1; 30 μM, 1 h vs 0.05% DMSO): 1.2206 fold change
- NEU1 fold change Average (NEU1; 30 μM): 1.6536 fold change
- NEU1 fold change Average 1h60/1hK1 (NEU1; 60 μM, 1 h vs 0.05% DMSO): 1.323 fold change
- NEU1 fold change Average (NEU1; 60 μM): 2.259 fold change
- NEU1 fold change Average 1h100/1hK1 (NEU1; 100 μM, 1 h vs 0.05% DMSO): 1.353 fold change
- NEU1 fold change Average (NEU1; 100 μM): 2.492 fold change
- GAG synthesis [1]: reduces levels of GAG synthesis
- storage depositions in cells [1]: causes disappearance of the storage depositions in cells
- LGMN fold change Average 1h30/1hK1 (LGMN; 30 μM, 1 h vs 0.05% DMSO): 0.9392 fold change
- LGMN fold change Average (LGMN; 30 μM): 1.3309 fold change
- LGMN fold change Average 1h60/1hK1 (LGMN; 60 μM, 1 h vs 0.05% DMSO): 0.9963 fold change
- LGMN fold change Average (LGMN; 60 μM): 1.61 fold change
- LGMN fold change Average 1h100/1hK1 (LGMN; 100 μM, 1 h vs 0.05% DMSO): 0.8978 fold change
- LGMN fold change Average (LGMN; 100 μM): 1.833 fold change
- HS3ST3A1 fold change Average 1h30/1hK1 (HS3ST3A1; 30 μM, 1 h vs 0.05% DMSO): 1.027 fold change
- HS3ST3A1 fold change Average 24h30/24hK1 (HS3ST3A1; 30 μM, 24 h vs 0.05% DMSO): 0.835 fold change
- HS3ST3A1 fold change Average 48h30/48hK1 (HS3ST3A1; 30 μM, 48 h vs 0.05% DMSO): 0.7933 fold change
- HS3ST3A1 fold change Average 1h60/1hK1 (HS3ST3A1; 60 μM, 1 h vs 0.05% DMSO): 0.9002 fold change
- HS3ST3A1 fold change Average 24h60/24hK1 (HS3ST3A1; 60 μM, 24 h vs 0.05% DMSO): 0.5744 fold change
- HS3ST3A1 fold change Average 48h61/48hK1 (HS3ST3A1; 60 μM, 48 h vs 0.05% DMSO): 0.6043 fold change
- HS3ST3A1 fold change Average 1h100/1hK1 (HS3ST3A1; 100 μM, 1 h vs 0.05% DMSO): 1.047 fold change
- HS3ST3A1 fold change Average 24h100/24hK1 (HS3ST3A1; 100 μM, 24 h vs 0.05% DMSO): 0.5452 fold change
- HS3ST3A1 fold change Average 48h100/48hK1 (HS3ST3A1; 100 μM, 48 h vs 0.05% DMSO): 0.569 fold change
- FUCA1 fold change Average 1h30/1hK1 (FUCA1; 30 μM, 1 h vs 0.05% DMSO): 0.9984 fold change
- FUCA1 fold change Average (FUCA1; 30 μM): 1.3114 fold change
- FUCA1 fold change Average 1h60/1hK1 (FUCA1; 60 μM, 1 h vs 0.05% DMSO): 1.022 fold change
- FUCA1 fold change Average (FUCA1; 60 μM): 1.558 fold change
- FUCA1 fold change Average 1h100/1hK1 (FUCA1; 100 μM, 1 h vs 0.05% DMSO): 0.9945 fold change
- FUCA1 fold change Average (FUCA1; 100 μM): 1.634 fold change
- ARSG fold change Average 1h30/1hK1 (ARSG; 30 μM, 1 h vs 0.05% DMSO): 1.083 fold change
- ARSG fold change Average (ARSG; 30 μM): 1.3921 fold change
- ARSG fold change Average 1h60/1hK1 (ARSG; 60 μM, 1 h vs 0.05% DMSO): 1.204 fold change
- ARSG fold change Average (ARSG; 60 μM): 2.488 fold change
- ARSG fold change Average 1h100/1hK1 (ARSG; 100 μM, 1 h vs 0.05% DMSO): 0.961 fold change
- ARSG fold change Average (ARSG; 100 μM): 1.81 fold change
- GBA fold change Average 1h30/1hK1 (GBA; 30 μM, 1 h vs 0.05% DMSO): 0.9138 fold change
- GBA fold change Average (GBA; 30 μM): 1.257 fold change
- GBA fold change Average 1h60/1hK1 (GBA; 60 μM, 1 h vs 0.05% DMSO): 1.033 fold change
- GBA fold change Average (GBA; 60 μM): 1.467 fold change
- GBA fold change Average 1h100/1hK1 (GBA; 100 μM, 1 h vs 0.05% DMSO): 0.9469 fold change
- GBA fold change Average (GBA; 100 μM): 1.606 fold change
